Source: PubChem BioAssay (NCI)
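Values below derive from 48-hour exposures of cells grown in 96-well plates, with endpoints linearly interpolated between the two concentrations bracketing the appropriate inhibition level. GI50: concentration for 50% inhibition of growth. The concentration for full growth arrest is given as TGI.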

Key:
Test in all cases: NCI-60 cell line screen, 48 h
SK-MEL-2 melanoma = test system: SK-MEL-2 melanoma
IGROV1 ovarian = test system: IGROV1 ovarian
HCT-116 colon = test system: HCT-116 colon
OVCAR-3 ovarian = test system: OVCAR-3 ovarian
NCI-H460 lung = test system: NCI-H460 lung
CCRF-CEM leukemia = test system: CCRF-CEM leukemia
A498 renal = test system: A498 renal
PC-3 prostate = test system: PC-3 prostate
BT-549 breast = test system: BT-549 breast
MDA-MB-231 breast = test system: MDA-MB-231 breast

SMILES | GI50 (SK-MEL-2 melanoma) [µM] | TGI (SK-MEL-2 melanoma) [µM] | GI50 (IGROV1 ovarian) [µM] | TGI (IGROV1 ovarian) [µM] | GI50 (HCT-116 colon) [µM] | TGI (HCT-116 colon) [µM] | GI50 (OVCAR-3 ovarian) [µM] | TGI (OVCAR-3 ovarian) [µM] | GI50 (NCI-H460 lung) [µM] | TGI (NCI-H460 lung) [µM] | GI50 (CCRF-CEM leukemia) [µM] | TGI (CCRF-CEM leukemia) [µM] | TGI (A498 renal) [µM] | GI50 (PC-3 prostate) [µM] | TGI (PC-3 prostate) [µM] | GI50 (BT-549 breast) [µM] | TGI (BT-549 breast) [µM] | GI50 (MDA-MB-231 breast) [µM] | TGI (MDA-MB-231 breast) [µM] | GI50 (A498 renal) [µM]
[Cl][Sn]([c]1ccccc1)[c]1ccccc1 | 2.65 | 11.9 | 17.7 | 43.7 | 6.91 | 22.9 | 11.4 | 24.1 | 18.3 | 38.7 | 1.85 | 5.85 |  |  |  |  |  |  |  | 
Cc1cc2occ(C)c(=O)c2c2c1OC(C)(C)S2 |  | > 100 |  | > 100 |  | > 100 |  | > 100 |  | > 100 |  | > 100 |  |  |  |  |  |  |  | 
c1cncc(C2c3[nH]c4ccccc4c3CCN2CCN2CCCCC2)c1 (stereo not drawn) |  |  |  | > 100 |  | > 100 |  | > 100 |  | > 100 |  | > 100 | > 100 |  |  |  |  |  |  | 
O=c1c(OC/C(=N/O)c2ccccc2)c(-c2ccccc2)oc2ccccc12 | 16.4 | > 50 |  |  |  |  | 8.06 | 20.1 | 11.3 | 27.5 | 0.461 | 6.47 |  | 8.64 | 18 | 13.2 | 26.8 | 9.39 | 23.6 | 
c1cc2c(cnc3cscc32)s1 |  | > 100 |  |  |  | > 100 |  | > 100 |  | > 100 |  | > 100 | > 100 |  |  |  |  |  |  | 
CN(C)CN1C(=O)S/C(=C2\C(=O)N(CN(C)C)c3ccccc32)C1=O |  | > 100 |  | > 100 |  | > 100 |  | > 100 |  | > 100 |  |  | > 100 |  | > 100 |  | > 100 |  | > 100 | 
Cn1c(=O)c2c(nc3n2CCC(=O)N3)n(C)c1=O |  | > 100 |  | > 100 |  |  |  |  |  | > 100 |  | > 100 | > 100 |  |  |  |  |  |  | 
COC(=O)C12C3C4C1C1C2C3C41I (stereo not drawn) |  |  |  | > 100 |  |  |  | > 100 |  | > 100 |  | > 100 | > 100 |  |  |  |  |  |  | 
Cc1c(C(=O)CC(=O)C(=O)NC2C3CC4CC(C3)CC2C4)[n+](=O)c2ccccc2n1[O-] (stereo not drawn) |  | > 100 |  | > 100 |  | > 100 |  | 85.1 |  | > 100 |  | > 100 | > 100 |  |  |  |  |  |  | 
CC(=O)O/C(C)=C\C(=O)O/N=C(\N)c1ccc(C)cc1 |  | 72.3 |  | > 100 |  | 43.1 |  | > 100 |  | > 100 |  | 41.5 | > 100 |  |  |  |  |  |  | 
CCOC(=O)/C=C(/CN1C(=O)c2ccccc2C1=O)c1ccccc1 |  | > 100 |  | > 100 |  | > 100 |  | > 100 |  | > 100 |  | > 100 | > 100 |  |  |  |  |  |  | 
CN(C)CCNC(=O)c1cc([N+](=O)[O-])cc2ccc(-c3ccccc3)nc12 |  | 28.7 |  | 25.6 |  | 13.4 |  | 54.3 |  | 12.8 |  | 13.6 | 14.4 |  |  |  |  |  |  | 
OC1CCC(C2C3CCCCC3C3CCCCC3C2C2CCC(O)CC2)CC1 (stereo not drawn) |  | 25.3 |  | 12.8 |  | > 100 |  | > 100 |  | 10.2 |  |  | 32.2 |  | > 100 |  | 8.87 |  | 9.66 | 
CCCCCCCCCCCCC(SCCNC(=O)CCNC(=O)C(O)C(C)(C)COP(=O)(O)OP(=O)(O)OCC1OC(n2cnc3c(N)ncnc32)C(O)C1OP(=O)(O)O)C(=O)NCC(N)=O (stereo not drawn) |  | > 100 |  | > 100 |  | > 100 |  | > 100 |  | > 100 |  | > 100 | > 100 |  |  |  |  |  |  | 
C=CCN(N=O)C(=O)N(CCC)CCCC(NC(C)=O)C(=O)NCc1ccccc1 (stereo not drawn) |  | > 100 |  | > 100 |  |  |  | > 100 |  | > 100 |  | > 100 | > 100 |  |  |  |  |  |  | 
CN(C)CCNc1cccc2sc3ccc(O)cc3c(=O)c12 |  |  | 3.13 | 12.5 | 2.12 | 9.68 | 3.28 | 11.5 | 0.548 | 2.47 | 0.777 | 6.61 | 24.1 | 2.44 | 13.4 | 9.2 | 23.5 | 1.48 | 3.72 | 10.8
Cc1ccc(N2C(=O)C(Cl)=C(Nc3cccc(O)c3)C2=O)cc1Cl | 38 | > 100 | 31.5 | > 100 | 13.9 | 27.8 | 15.3 | 28.9 | 11.6 | 26.7 | 18.5 | 46.8 | 25.5 | 12.5 | 30.9 |  |  |  |  | 12.4
CCOC(=O)c1c2ccc(/C=C/C(=O)OC)ccc-2c(C(=O)OCC)c1N |  | > 100 |  | > 100 |  |  |  | > 100 |  | > 100 |  | > 100 | 49.4 |  |  |  |  |  |  | 
O=C1c2cccc3cc([N+](=O)[O-])cc(c23)C(=O)N1CCCN1CCN(CCCN2C(=O)c3cccc4cc([N+](=O)[O-])cc(c34)C2=O)CC1 |  | 5.34 |  | 15.4 |  | 1.34 |  | 4.81 |  | > 100 |  | > 100 | 3.87 |  |  |  |  |  |  | 
O=c1oc2c3ccc4ccccc4c3n(Cc3nc4ccccc4[nH]3)c2c2ccccc12 |  | > 100 |  | > 100 |  | > 100 |  | > 72.8 |  | > 100 |  | > 100 | > 100 |  |  |  |  |  |  | 
COc1ccc2c(C3(O)CCNCC3)c[nH]c2c1 |  | > 100 |  | > 100 |  |  |  | > 100 |  | > 100 |  | > 100 |  |  |  |  |  |  |  | 
CC1(C)OC2C(=O)OC(COCc3ccccc3)C2O1 (stereo not drawn) |  | > 100 |  | > 100 |  | > 100 |  | > 100 |  | > 100 |  | > 100 | > 100 |  |  |  |  |  |  | 
CCOC(OC1=C(C#N)CCC1)C(CC)[Se]c1ccccc1 (stereo not drawn) |  | 80.8 |  | 71 |  | 57.6 |  | 58.5 |  | > 100 |  | > 100 | > 100 |  |  |  |  |  |  | 
c1ccc(COc2ccc3[nH]c4c(ncc5[nH]c6ccccc6c54)c3c2)cc1 |  | 30.8 |  | 18.9 |  | 27 |  | 30.3 |  | 37 |  | 40.7 | 41.6 |  |  |  |  |  |  | 
